Article PMC7592081, “Single-Atom Nanozymes Linked Immunosorbent Assay for Sensitive Detection of Aβ 1-40: A Biomarker of Alzheimer's Disease” (Research, 2020)

Tested on: T1, horseradish peroxidase (HRP)
T1 construct: gene PRXC1A; natural HRP
Experiment: steady-state kinetics, Michaelis-Menten fit, absorbance of oxidised TMB ([…] nm)
Format: biochemical, Armoracia rusticana
Conditions: co-substrate H2O2; acetate buffer pH 3.6 (printed for the nanozyme assay)

## Cc1cc(-c2cc(C)c(N)c(C)c2)cc(C)c1N [3,3′,5,5′-tetramethylbenzidine]
  Km: 427 µM
